Literature values, collected in patent US20140366440A1, “METHOD FOR PRODUCING CLONE SEEDLINGS” (OKAYAMA PREFECTURE, priority 2009, published 2014).

Experiments:
[1] = system: callus of a tobacco plant; settings: cited from earlier work
[2] = system: calluses of a Russell prairie gentian; settings: medium containing glutathione; cited from earlier work
[3] = system: calluses of a rice plant; settings: medium containing glutathione; cited from earlier work
[4] = system: Eucalyptus globulus elite tree; settings: in the presence of auxin; Sotelo and Monza, Agrociencia (2007); cited from earlier work

In the case of `CCCCS(=N)(=O)CCC(N)C(=O)O` (centres unmarked) [buthionine sulfoximine (BSO), buthionine sulfoximine, reference compound], the “number of differentiation of adventitious buds per callus” value ([1]; addition of BSO) is given as “remarkably increases”.
In the case of `N[C@@H](CCC(=O)N[C@@H](CS)C(=O)NCC(=O)O)C(=O)O` [glutathione], the redifferentiation of callus [2] is listed as “promotes redifferentiation”, the “forming an adventitious bud from callus” value ([1]; addition of glutathione of 1 mM) is listed as “inhibits” and the redifferentiation of callus [3] is listed as “promotes redifferentiation”.
In the case of auxin, the rooting rate [4] is given as ≤ 25%.
